The text below walks through data of patent US9670204B2, “Compounds and pharmaceutical compositions thereof for the treatment of inflammatory disorders” (Galapagos NV, priority 2013, dated 2017).

Some results are limits rather than exact numbers.

Test [1] addresses T1, hENPP2 (UniProtKB/SwissProt Q13822) (Homo sapiens (Human), UniProt Q13822). The test is described as follows: fluorescent hENPP2 biochemical assay, FS-3 as substrate. Particulars: read-out: FS3-IC50. The protocol:
Compound IC50 values are determined in a fluorescent hENPP2 (UniProtKB/SwissProt Sequence ref Q13822) biochemical assay using the fluorogenic autotaxin substrate FS-3 as substrate. FS-3 is a doubly labeled analog of LPC wherein the fluorophore is quenched through intramolecular energy transfer. Without hENPP2, the emission of the probe is quenched. If the substrate is hydrolyzed by hENPP2, the emission of the probe is not quenched anymore resulting in a fluorescence increase.
The enzyme is diluted in 50 mM Tris-HCl pH 8.0, 250 mM NaCl, 5 mM KCl, 1 mM MgCl2, 1 mM CaCl2, 0.1% fatty acid free BSA in a total volume of 20 μL. Enzyme mixture is added to compounds and the resulting mixture is incubated for 30 min at room temperature under shaking. The reaction is started by the addition of 20 μL of 0.75 μM FS-3 diluted in the same buffer as described above and the mixture is incubated at 30° C. for 30 min. Fluorescence is read on the Envision (Excitation 485 nm, emission 520 nm).

The target of test [2] is T1, hENPP2. The test is described as follows: hENPP2 biochemical assay, LPC as substrate. Particulars: LPC (palmitoyl 16:0) as substrate. The protocol: The principle of the assay consists in quantifying the released choline with an enzymatic method using choline oxidase and peroxidase. Choline oxydation by choline oxydase releases betaine and peroxide. The latter is quantified in presence of HRP that converts the peroxide detection agent TOOS and 4-aminoantipyrine into quinoneimine dye. The appearance of quinoneimine dye is measured spectrophotometrically at 555 nm and is proportional to the amount of choline released by ENPP2. Inhibition of ENPP2 will result in a decrease of the signal.
Compound IC50 values are determined in a hENPP2 (UniProtKB/SwissProt Sequence ref Q13822) biochemical assay using LPC as substrate.
The enzyme is diluted in 50 mM Tris-HCl pH 8.5, 500 mM NaCl, 5 mM KCl, 10 mM CaCl2, 0.1% fatty acid free BSA in a total volume of 10 μL. the reaction is started by the addition of 10 μL of 150 μM LPC (palmitoyl 16:0) diluted in the same buffer as described above and the mixture is incubated at 37° C. for 30 min. The reaction is terminated and choline quantified by the addition of a 25 μL of a mixture containing 0.6 U/mL of choline oxidase, 0.6 U/mL of peroxydase, 1.8 mM TOOS, 1.2 mM amino-antipyrine, 20 mM EGTA (stop-developer solution) diluted in the buffer described above. […] is read on the Envision after an incubation of 30 min at room temperature (Excitation 555 nm, excitation light=70%).

Turning to `CCc1nc2ccc(N3CCN(C(=O)C(N)=O)CC3)cn2c1N(C)c1nc(-c2ccc(F)cc2)cs1` [Compound 204, 2-(4-(2-ethyl-3-((4-(4-fluorophenyl)thiazol-2-yl)(methyl)amino)imidazo[1,2-a]pyridin-6-yl)piperazin-1-yl)-2-oxoacetamide], the IC50 was 0.01 to 100 nM at hENPP2 [1] and more than 1000 nM on hENPP2 [2].

With `CCc1nc2ccc(C3CCN(CC(N)=O)CC3)cn2c1N(C)c1nc(-c2ccc(F)cc2)cs1` [Compound 125, 2-(4-(2-ethyl-3-((4-(4-fluorophenyl)thiazol-2-yl)(methyl)amino)imidazo[1,2-a]pyridin-6-yl)piperidin-1-yl)acetamide], the IC50 on hENPP2 [1] is 0.01 to 100 nM; against hENPP2 [2], more than 1000 nM.

As to `CCc1nc2ccc(N3CCN(Cc4nnnn4C4CC4)CC3)cn2c1N(C)c1nc(-c2ccc(F)cc2)cs1` [Compound 39, N-(6-(4-((1-cyclopropyl-1H-tetrazol-5-yl)methyl)piperazin-1-yl)-2-ethylimidazo[1,2-a]pyridin-3-yl)-4-(4-fluorophenyl)-N-methylthiazol-2-amine], the results for the IC50 at hENPP2 [1] and against hENPP2 [2] were 0.01 to 100 nM and more than 1000 nM, respectively.

Consider `CCc1nc2ccc(C3=CCN(S(=O)(=O)C(F)(F)F)CC3)cn2c1N(C)c1nc(-c2ccc(Cl)cc2)cs1` [Compound 210, 4-(4-chlorophenyl)-N-(2-ethyl-6-(1-(trifluoromethylsulfonyl)-1,2,3,6-tetrahydropyridin-4-yl)imidazo[1,2-a]pyridin-3-yl)-N-methylthiazol-2-amine], for which the values for the IC50 on hENPP2 [1] and against hENPP2 [2] were 0.01 to 100 nM and more than 1000 nM, respectively.

Take `CCc1nc2ccc(N3CCNC3=O)cn2c1N(C)c1nc(-c2ccc(Cl)cc2)cs1` [Compound 183, 1-(3-((4-(4-chlorophenyl)thiazol-2-yl)(methyl)amino)-2-ethylimidazo[1,2-a]pyridin-6-yl)imidazolidin-2-one]: the IC50 was 0.01 to 100 nM at hENPP2 [1] and more than 1000 nM at hENPP2 [2].

For `CCc1nc2ccc(C3CCN(S(=O)(=O)CCCOC(C)=O)CC3)cn2c1N(C)c1nc(-c2ccc(F)cc2)cs1` [Compound 93, 3-(4-(2-ethyl-3-((4-(4-fluorophenyl)thiazol-2-yl)(methyl)amino)imidazo[1,2-a]pyridin-6-yl)piperidin-1-ylsulfonyl)propyl acetate], the IC50 was 0.01 to 100 nM at hENPP2 [1] and 100 to 500 nM against hENPP2 [2].

For the molecule `CCc1nc2ccc(C3=NC(C(=O)O)CO3)cn2c1N(C)c1nc(-c2ccc(F)cc2)cs1` (stereo not shown) [Compound 238, 2-(2-ethyl-3-((4-(4-fluorophenyl)thiazol-2-yl)(methyl)amino)imidazo[1,2-a]pyridin-6-yl)-4,5-dihydro-oxazole-4-carboxylic acid], the IC50 on hENPP2 [1] is 100 to 500 nM.

`CCc1nc2ccc(C3=CCN(S(C)(=O)=O)CC3)cn2c1N(C)c1nc(-c2ccc(F)cc2)c(F)s1` [Compound 77, N-(2-ethyl-6-(1-(methylsulfonyl)-1,2,3,6-tetrahydropyridin-4-yl)imidazo[1,2-a]pyridin-3-yl)-5-fluoro-4-(4-fluorophenyl)-N-methylthiazol-2-amine]: the IC50 was 0.01 to 100 nM on hENPP2 [1] and more than 1000 nM on hENPP2 [2].

With `CCc1nc2ccc(N3CCC(F)(F)CC3)cn2c1N(C)c1nc(-c2ccc(F)cc2)cs1` [Compound 232, N-(6-(4,4-difluoropiperidin-1-yl)-2-ethylimidazo[1,2-a]pyridin-3-yl)-4-(4-fluorophenyl)-N-methylthiazol-2-amine], the IC50 on hENPP2 [1] was 0.01 to 100 nM.

In the case of `CCc1nc2ccc(C3=NCC(C)O3)cn2c1N(C)c1nc(-c2ccc(F)cc2)cs1` (stereo not shown) [Compound 236, N-(2-ethyl-6-(5-methyl-4,5-dihydrooxazol-2-yl)imidazo[1,2-a]pyridin-3-yl)-4-(4-fluorophenyl)-N-methylthiazol-2-amine], at hENPP2 [1], the IC50 lay within 100 to 500 nM.

`CCc1nc2ccc(C3=CCN(C(=O)OC(C)(C)C)CC3)cn2c1N(C)c1nc(-c2ccc(Cl)cc2)cs1` [Compound 230, tert-butyl 4-(3-((4-(4-chlorophenyl)thiazol-2-yl)(methyl)amino)-2-ethylimidazo[1,2-a]pyridin-6-yl)-5,6-dihydropyridine-1(2H)-carboxylate]: the IC50 on hENPP2 [1] lay within 0.01 to 100 nM.

As to `CCc1nc2ccc(N3CCNCC3)cn2c1N(C)c1nc(-c2ccc(F)cc2)cs1` [Gen-10-e], the IC50 at hENPP2 [1] fell in the range of 0.01 to 100 nM.

For the molecule `CCc1nc2ccc(C3=NC(C)CO3)cn2c1N(C)c1nc(-c2ccc(F)cc2)cs1` (stereo not shown) [Compound 237, N-(2-ethyl-6-(4-methyl-4,5-dihydrooxazol-2-yl)imidazo[1,2-a]pyridin-3-yl)-4-(4-fluorophenyl)-N-methylthiazol-2-amine], at hENPP2 [1], the IC50 fell in the range of 0.01 to 100 nM.

As for `CCc1nc2ccc(C3CCN(CC4CCCCC4)CC3)cn2c1N(C)c1nc(-c2ccc(F)cc2)cs1` [Compound 235, N-(6-(1-(cyclohexylmethyl)piperidin-4-yl)-2-ethylimidazo[1,2-a]pyridin-3-yl)-4-(4-fluorophenyl)-N-methylthiazol-2-amine], on hENPP2 [1], the IC50 was in the range of 0.01 to 100 nM.

Take `CCc1nc2ccc(C3=CCSCC3)cn2c1N(C)c1nc(-c2ccc(Cl)cc2)cs1` [Compound 231, 4-(4-chlorophenyl)-N-(6-(3,6-dihydro-2H-thiopyran-4-yl)-2-ethylimidazo[1,2-a]pyridin-3-yl)-N-methylthiazol-2-amine]: the IC50 on hENPP2 [1] is 0.01 to 100 nM.

For the molecule `CCc1nc2ccc(N3CCN(C(=O)OC(C)(C)C)CC3)cn2c1N(C)c1nc(-c2ccc(Cl)cc2)cs1` [Compound 234, tert-butyl 4-(3-((4-(4-chlorophenyl)thiazol-2-yl)(methyl)amino)-2-ethylimidazo[1,2-a]pyridin-6-yl)piperazine-1-carboxylate], the IC50 at hENPP2 [1] was 0.01 to 100 nM.

On to `CCc1nc2ccc(C3CCN(S(C)(=O)=O)CC3)cn2c1N(C)c1nc(-c2ccc(F)cc2)c(Br)s1` [Compound 135, 5-bromo-N-(2-ethyl-6-(1-(methylsulfonyl)piperidin-4-yl)imidazo [1,2-a]pyridin-3-yl)-4-(4-fluorophenyl)-N-methylthiazol-2-amine], for which the IC50 on hENPP2 [1] was 0.01 to 100 nM.

As for `CCc1nc2ccc(C3=CCN(S(C)(=O)=O)CC3)cn2c1N(C)c1nc(-c2ccc(OC)cc2)cs1` [Compound 71, N-(2-ethyl-6-(1-(methylsulfonyl)-1,2,3,6-tetrahydropyridin-4-yl)imidazo[1,2-a]pyridin-3-yl)-4-(4-methoxyphenyl)-N-methylthiazol-2-amine], the IC50 against hENPP2 [2] was more than 1000 nM.

Consider `CCc1nc2ccc(C3CCN(CC4CNC(=O)O4)CC3)cn2c1N(C)c1nc(-c2ccc(F)cc2)cs1` (stereo not shown) [Compound 122, 5-((4-(2-ethyl-3-((4-(4-fluorophenyl)thiazol-2-yl)(methyl)amino)imidazo[1,2-a]pyridin-6-yl)piperidin-1-yl)methyl)oxazolidin-2-one], for which the concentration for half-maximal inhibition (IC50) against hENPP2 [2] is 500 to 1000 nM.

In turn, `CCc1nc2ccc(N3CCN(CC(=O)N4CC(F)(F)C4)CC3)cn2c1N(C)c1nc(-c2ccc(F)cc2C#N)cs1` [Compound 165, 2-(2-((6-(4-(2-(3,3-difluoroazetidin-1-yl)-2-oxoethyl)piperazin-1-yl)-2-ethylimidazo[1,2-a]pyridin-3-yl)(methyl)amino)thiazol-4-yl)-5-fluorobenzonitrile] had an IC50 against hENPP2 [2] of 100 to 500 nM.

In turn, `CCc1nc2ccc(N3CCN(CC(=O)NC)CC3)cn2c1N(C)c1nc(-c2ccc(F)cc2C#N)c(C)s1` [Compound 163, 2-(4-(3-((4-(2-cyano-4-fluorophenyl)-5-methylthiazol-2-yl)(methyl)amino)-2-ethylimidazo[1,2-a]pyridin-6-yl)piperazin-1-yl)-N-methylacetamide] registered an IC50 on hENPP2 [2] of 500 to 1000 nM.

For orientation: IC50 means the point on the concentration scale where inhibition reaches its midpoint.
